Test results published in paper PMC5361079 (Scientific Reports, 2017).

Columns and labels:
hiPSC-CMs = test: Intracellular prodrug, cleavage intermediate metabolite and NTP metabolite concentrations in hiPSC-CMs; type: in vitro ADME, human; conditions: hiPSC-CMs; for Intracellular Concentration, Cleavage Intermediate Metabolite / Intracellular Concentration, NTP Metabolite: BLOQ = below 17 pmol/million cells
Protocol: Approximately 18 h before dosing, iCell hiPSC-CMs were switched to iCell cardiomyocyte maintenance media free of Penicillin/Streptomycin. […] […] After the corresponding treatment, cells were washed 2x with 200 μL of ice-cold magnesium- and calcium-free PBS buffer. Cells were then lysed in 100 μL of ice-cold lysis solution (70/30 methanol/water containing 20 mM EDTA and 20 mM EGTA, pH 8) by pipetting up and down 5 times. Plates were sealed and transferred on dry ice for determination of prodrug, cleavage intermediate metabolite, and NTP metabolite concentrations. Intracellular prodrug concentrations were measured using a reversed phase HPLC- high resolution mass spectrometry method. A dimethylhexylamine based ion-pairing HPLC-MS/MS method was used to measure intracellular cleavage intermediate metabolite and NTP metabolite concentrations. Intracellular concentrations (pmol/million cells) of prodrug, cleavage intermediate metabolite, and NTP metabolite were quantitated against calibration standards of the same analytes prepared from control iCell hiPSC-CM lysates.
For prodrug analyses, full scan high resolution mass spectrometry data was collected using an Exactive™ Orbitrap mass spectrometer with an electrospray source operated in the positive ion mode. Prodrug chromatograms were extracted from full scan high resolution mass spectrometry data for the masses indicated in Supplementary Table 5. Absence of endogenous interference(s) was verified by extracting the same ion from full scan high resolution mass spectrometry chromatograms of unspiked control cell lysates. For the cleavage intermediate metabolite and NTP metabolite an electrospray MS/MS method run on a SCIEX API 4000 mass spectrometer with turboV ionspray source was used in negative ion mode monitoring the transitions indicated in Supplementary Table 5. Absence of endogenous interference(s) was verified by monitoring of the same MRM transitions for unspiked control cell lysates. Measured intracellular prodrug, cleavage intermediate metabolite, and NTP metabolite concentrations (in pmol/million cells units) were tabulated (Table 2).

hiPSC-CM syncytia = test: Spontaneous FP rate and IMP amplitude/beating rate in hiPSC-CM syncytia (RTCA CardioECR / RTCA Cardio); type: cell-based, human; conditions: prodrug co-administered with 0.3 μM amiodarone, steady state (4 h), spontaneously beating hiPSC-CM syncytia
Protocol: hiPSC-CMs (iCells®) from Cellular Dynamics International (CDI, Madison, WI, USA) were seeded onto 48-well CardioECR or 96-well Cardio E-Plates® (ACEA Biosciences Inc., San Diego, CA, USA) coated with 10 μg/mL fibronectin (Sigma Aldrich, Catalog# F1141) at 30,000 cells/well, following manufacturer’s recommendations. Cells were maintained in culture (37 °C, 5% CO2) for a period of 14 days with iCell Maintenance® media (CDI, Madison, WI, USA) exchanged every 2–3 days. Compound addition was only performed on or after Day 14 following cell seeding.
Compound stock solutions were prepared in 100% DMSO or H2O. On the day of compound addition, the media was exchanged with fresh iCell Maintenance® media and allowed to equilibrate for at least 3 h in the incubator. The plates were read on an xCELLigence® RTCA CardioECR or RTCA Cardio (ACEA Biosciences Inc., San Diego, CA, USA). Control pre-reads to establish a baseline were recorded for at least 45 minutes (4 reads at 15-min intervals) prior to compound addition. The compound stock solutions were diluted into iCell Maintenance® media and quickly added to the plate. The plate was continuously monitored for at least 18 h following compound addition. IMP data were sampled at 12 ms (83 Hz), while FP rate data were collected at 0.1 ms (10 KHz). Attachment, growth and viability of syncytia were monitored by means of the baseline IMP signal, as previously described. IMP and FP signals were only interpreted if the baseline IMP was maintained throughout the measurement period (usually ≤18 hrs) at ≥70% of the value before test compound application (pre-read value).

[1] = system: conscious, male rhesus monkeys; conditions: intravenous infusion of MK-3682 after AMIO pretreatment; cited from earlier work
[2] = 10 μM prodrug + 0.3 μM amiodarone, 4 Hours
[3] = 10 μM prodrug + 0.3 μM amiodarone, 30 Min

CC(C)OC(=O)[C@@H](C)NP(=O)(OC[C@H]1O[C@@H](n2ccc(=O)[nH]c2=O)[C@](C)(Cl)[C@@H]1O)Oc1ccccc1 (stereo partly drawn) [MK-3682, isopropyl (2R)-2-[[[(2R,3R,4R,5R)-4-chloro-5-(2,4-dioxopyrimidin-1-yl)-3-hydroxy-4-methyl-tetrahydrofuran-2-yl]methoxy-phenoxy-phosphoryl]amino]propanoate]
Intracellular Concentration, Prodrug (hiPSC-CMs; [2]): 91.9 ± 12.4 pmol/million cells
Intracellular Concentration, Cleavage Intermediate Metabolite (hiPSC-CMs; [2]): BLOQ
Intracellular Concentration, NTP Metabolite (hiPSC-CMs; [2]): BLOQ
Intracellular Concentration, Prodrug (hiPSC-CMs; [3]): 95.0 ± 6.7 pmol/million cells
Intracellular Concentration, Cleavage Intermediate Metabolite (hiPSC-CMs; [3]): BLOQ
Intracellular Concentration, NTP Metabolite (hiPSC-CMs; [3]): BLOQ
Intracellular Concentration, Prodrug (hiPSC-CMs; 10 μM prodrug alone, 4 Hours): 100.4 ± 13.2 pmol/million cells
Intracellular Concentration, Cleavage Intermediate Metabolite (hiPSC-CMs; 10 μM prodrug alone, 4 Hours): BLOQ
Intracellular Concentration, NTP Metabolite (hiPSC-CMs; 10 μM prodrug alone, 4 Hours): BLOQ
Intracellular Concentration, Prodrug (hiPSC-CMs; 10 μM prodrug alone, 30 Min): 89.8 ± 12.9 pmol/million cells
Intracellular Concentration, Cleavage Intermediate Metabolite (hiPSC-CMs; 10 μM prodrug alone, 30 Min): BLOQ
Intracellular Concentration, NTP Metabolite (hiPSC-CMs; 10 μM prodrug alone, 30 Min): BLOQ
Effect on FP rate (hiPSC-CM syncytia): lack of effects
Effect on IMP amplitude (hiPSC-CM syncytia): lack of effects
Bradycardia and bradyarrhythmia [1]: not observed
